# Patent US12384771B2, “Pleuromutilin derivative containing thiazole-pyridine benzyl quaternary ammonium salt side chain and preparation method and use thereof” (SHAANXI UNIVERSITY OF SCIENCE AND TECHNOLOGY, priority 2022, dated 2025)
# Where a name gives a salt, the structure may show the parent alone.
# Legend:
# physchem = conditions: thermodynamic from solid
# Method: Experimental method: representative compounds 2, 4 and 7 were selected for solubility determination, and retapamulin hydrochloride was used as a control. 1 mg of each sample was taken and quantitatively dissolved in a 10 mL volumetric flask, and the absorption peak area was measured by a high-performance liquid chromatography; then, the saturated solutions of the representative compounds 2, 4 and 7 and the control drug retapamulin were diluted 10-fold, and the absorption peak area was determined by HPLC; their respective solubility was obtained by calculating the absorption peak area.
# The experimental instrument was Shimadzu LC-16, the chromatographic column was Hypersil C18 ODS (4.6×250 mm×5 μm), the flow rate was 1.0 mL/min, the detection wavelength was 300 nm, and the mobile phase was 0.05 mol/L of aqueous acetic acid solution:acetonitrile=30:70.
# [1] = test system: methicillin-resistant Staphylococcus aureus (MRSA) 18-171; assay: MIC, clinical drug-resistant bacteria; format: cell-based; conditions: MRSA, read-out: Minimum inhibitory concentration against clinical drug-resistant bacteria
# Method: (§1) The minimum inhibitory concentration (MIC) of the pleuromutilin derivative containing thiazole-pyridine benzyl quaternary ammonium salt side chain was tested with moxifloxacin as a positive control (purchased from Shanghai Macklin Biochemical Technology Co., Ltd.) using a microbroth dilution method. At the same time, the pleuromutilin derivative containing thiazole-pyridine benzyl quaternary ammonium salt side chain of the invention was compared with the marketed pleuromutilin antibiotics, such as retapamulin (purchased from Nanjing Chemlin Chemical Industry Co., Ltd.), tiamulin (purchased from Shanghai Yuanye Bio-Technology Co., Ltd) and valnemulin (purchased from Shanghai Acmec Biochemical Co., Ltd), in order to screen out pleuromutilin derivatives with better activity.
# (§2) Clinical resistant bacteria include multidrug-resistant Pseudomonas aeruginosa (MDR-PA) 18-993, 18-756 and 18-126, multidrug-resistant Klebsiella pneumoniae (MDR-KP) 18-893, 18-754 and 18-1482, methicillin-resistant Staphylococcus aureus (MRSA) 18-171, 18-209 and 18-575, vancomycin-resistant Enterococcus faecalis (VRE) 18-94, 18-80 and 18-507, and carbapenem-resistant Acinetobacter baumannii (CR-AB) 18-184, 18-560 and 18-882, all the clinical drug-resistant strains were from Huashan Hospital, Fudan University.
# [2] = test system: methicillin-resistant Staphylococcus aureus (MRSA) 18-575; assay: MIC, clinical drug-resistant bacteria; format: cell-based; conditions: MRSA, read-out: Minimum inhibitory concentration against clinical drug-resistant bacteria
# Method: as §1, §2
# [3] = test system: multidrug-resistant Pseudomonas aeruginosa (MDR-PA) 18-126; assay: MIC, clinical drug-resistant bacteria; format: cell-based; conditions: read-out: Minimum inhibitory concentration against clinical drug-resistant bacteria
# Method: as §1, §2
# [4] = test system: vancomycin-resistant Enterococcus faecalis (VRE) 18-80; assay: MIC, clinical drug-resistant bacteria; format: cell-based; conditions: read-out: Minimum inhibitory concentration against clinical drug-resistant bacteria
# Method: as §1, §2
# [5] = test system: multidrug-resistant Klebsiella pneumoniae (MDR-KP) 18-893; assay: MIC, clinical drug-resistant bacteria; format: cell-based; conditions: read-out: Minimum inhibitory concentration against clinical drug-resistant bacteria
# Method: as §1, §2
# [6] = test system: multidrug-resistant Pseudomonas aeruginosa (MDR-PA) 18-756; assay: MIC, clinical drug-resistant bacteria; format: cell-based; conditions: read-out: Minimum inhibitory concentration against clinical drug-resistant bacteria
# Method: as §1, §2
# [7] = test system: multidrug-resistant Klebsiella pneumoniae (MDR-KP) 18-1482; assay: MIC, clinical drug-resistant bacteria; format: cell-based; conditions: read-out: Minimum inhibitory concentration against clinical drug-resistant bacteria
# Method: as §1, §2
# [8] = test system: vancomycin-resistant Enterococcus faecalis (VRE) 18-507; assay: MIC, clinical drug-resistant bacteria; format: cell-based; conditions: read-out: Minimum inhibitory concentration against clinical drug-resistant bacteria
# Method: as §1, §2
# [9] = test system: carbapenem-resistant Acinetobacter baumannii (CR-AB) 18-882; assay: MIC, clinical drug-resistant bacteria; format: cell-based; conditions: read-out: Minimum inhibitory concentration against clinical drug-resistant bacteria
# Method: as §1, §2
# [10] = test system: multidrug-resistant Pseudomonas aeruginosa (MDR-PA) 18-993; assay: MIC, clinical drug-resistant bacteria; format: cell-based; conditions: read-out: Minimum inhibitory concentration against clinical drug-resistant bacteria
# Method: as §1, §2
# [11] = test system: carbapenem-resistant Acinetobacter baumannii (CR-AB) 18-560; assay: MIC, clinical drug-resistant bacteria; format: cell-based; conditions: read-out: Minimum inhibitory concentration against clinical drug-resistant bacteria
# Method: as §1, §2
# [12] = test system: vancomycin-resistant Enterococcus faecalis (VRE) 18-94; assay: MIC, clinical drug-resistant bacteria; format: cell-based; conditions: read-out: Minimum inhibitory concentration against clinical drug-resistant bacteria
# Method: as §1, §2
# [13] = test system: multidrug-resistant Klebsiella pneumoniae (MDR-KP) 18-754; assay: MIC, clinical drug-resistant bacteria; format: cell-based; conditions: read-out: Minimum inhibitory concentration against clinical drug-resistant bacteria
# Method: as §1, §2
# [14] = test system: methicillin-resistant Staphylococcus aureus (MRSA) 18-209; assay: MIC, clinical drug-resistant bacteria; format: cell-based; conditions: MRSA, read-out: Minimum inhibitory concentration against clinical drug-resistant bacteria
# Method: as §1, §2
# [15] = test system: carbapenem-resistant Acinetobacter baumannii (CR-AB) 18-184; assay: MIC, clinical drug-resistant bacteria; format: cell-based; conditions: read-out: Minimum inhibitory concentration against clinical drug-resistant bacteria
# Method: as §1, §2
# [16] = test system: Staphylococcus epidermidis ATCC 12228; assay: MIC, microbroth dilution, standard strains; format: cell-based; conditions: ATCC12228, read-out: Minimum inhibitory concentration
# Method: (§3) The minimum inhibitory concentration (MIC) of the pleuromutilin derivative containing thiazole-pyridine benzyl quaternary ammonium salt side chain was tested with moxifloxacin as a positive control (purchased from Shanghai Macklin Biochemical Technology Co., Ltd.) using a microbroth dilution method.
# (§4) Standard strains include gram-positive bacteria: Staphylococcus epidermidis ATCC 12228, Staphylococcus aureus ATCC 29213, ATCC 25923 and methicillin-resistant Staphylococcus aureus ATCC 33591; gram-negative bacteria: Salmonella ATCC 14028, Acinetobacter baumannii ATCC 19606, Escherichia coli ATCC 25922 and CMCC 44103, all the strains were purchased from the American Type Culture Collection.
# [17] = test system: methicillin-resistant Staphylococcus aureus ATCC 33591; assay: MIC, microbroth dilution, standard strains; format: cell-based; conditions: ATCC33591, read-out: Minimum inhibitory concentration
# Method: as §3, §4
# [18] = test system: Escherichia coli CMCC 44103; assay: MIC, microbroth dilution, standard strains; format: cell-based; conditions: CMCC44103, read-out: Minimum inhibitory concentration
# Method: as §3, §4
# [19] = test system: Acinetobacter baumannii ATCC 19606; assay: MIC, microbroth dilution, standard strains; format: cell-based; conditions: ATCC19606, read-out: Minimum inhibitory concentration
# Method: as §3, §4
# [20] = test system: Staphylococcus aureus ATCC 25923; assay: MIC, microbroth dilution, standard strains; format: cell-based; conditions: ATCC25923, read-out: Minimum inhibitory concentration
# Method: as §3, §4
# Salmonella ATCC 14028 = assay: MIC, microbroth dilution, standard strains; format: cell-based; conditions: ATCC14028, read-out: Minimum inhibitory concentration
# Method: as §3, §4
# [21] = test system: Escherichia coli ATCC 25922; assay: MIC, microbroth dilution, standard strains; format: cell-based; conditions: ATCC25922, read-out: Minimum inhibitory concentration
# Method: as §3, §4
# [22] = test system: Staphylococcus aureus ATCC 29213; assay: MIC, microbroth dilution, standard strains; format: cell-based; conditions: ATCC29213, read-out: Minimum inhibitory concentration
# Method: as §3, §4
smiles,measurement,setting,value
"C=C[C@]1(C)C[C@@H](OC(=O)CS[C@@H]2C[C@H]3CC[C@@H](C2)N3C)[C@]2(C)[C@H](C)CC[C@]3(CCC(=O)[C@H]32)[C@@H](C)[C@@H]1O [Retapamulin hydrochloride, retapamulin hydrochloride, reference compound]",solubility,physchem; organic solvent or mixture,1150 µg/mL
same,solubility,"physchem; pH 1.5, simulated gastric fluid",230 µg/mL
same,solubility,"physchem; pH 7, water",120 µg/mL
"C=C[C@]1(C)C[C@@H](OC(=O)CS[C@@H]2C[C@H]3CC[C@@H](C2)N3C)[C@]2(C)[C@H](C)CC[C@]3(CCC(=O)[C@H]32)[C@@H](C)[C@@H]1O [Retapamulin, retapamulin, reference compound]",MIC,[1],128 µg/mL
same,MIC,[2],> 128 µg/mL
same,MIC,[3],128 µg/mL
same,MIC,[4],> 128 µg/mL
same,MIC,[5],64 µg/mL
same,MIC,[6],> 128 µg/mL
same,MIC,[7],64 µg/mL
same,MIC,[8],> 128 µg/mL
same,MIC,[9],64 µg/mL
same,MIC,[10],128 µg/mL
same,MIC,[11],128 µg/mL
same,MIC,[12],> 128 µg/mL
same,MIC,[13],128 µg/mL
same,MIC,[14],128 µg/mL
same,MIC,[15],128 µg/mL
same,MIC,[16],32 µg/mL
same,MIC,[17],32 µg/mL
same,MIC,[18],32 µg/mL
same,MIC,[19],16 µg/mL
same,MIC,[20],4 µg/mL
same,MIC,Salmonella ATCC 14028,128 µg/mL
same,MIC,[21],32 µg/mL
same,MIC,[22],4 µg/mL
"C=C[C@]1(C)C[C@@H](OC(=O)CSC(C)(C)CNC(=O)[C@H](N)C(C)C)[C@]2(C)[C@H](C)CC[C@]3(CCC(=O)[C@H]32)[C@@H](C)[C@@H]1O [Valnemulin, valnemulin, reference compound]",MIC,[16],64 µg/mL
same,MIC,[17],> 128 µg/mL
same,MIC,[18],64 µg/mL
same,MIC,[19],2 µg/mL
same,MIC,[20],4 µg/mL
same,MIC,Salmonella ATCC 14028,64 µg/mL
same,MIC,[21],16 µg/mL
same,MIC,[22],2 µg/mL
